Where only a bound is given, the exact number is not on record here.

What all share (format): cell-based
The test system of experiment [1] is SKOV-3 ovarian cancer cells. Kind of experiment: CellTiter-Glo luminescent cell viability assay, SKOV-3 ovarian cancer cells. The source says:
(§1) In example 1, CELLTITER-GLO was used to test estrone against ovarian cancer and/or breast cancer m) A cell counter was used to count the number of suspended cells and adjust the cell suspension to an appropriate density in the plate to carry out cell plating experiments. SKOV-3 cells were handled as described above, and a SKOV-3 96-well cell culture plate was obtained. The complete medium for SKOV-3 cells was McCOY'S 5A (a live product), Cat #16600082, with a cells/well density of 12000. 2. The drug analyte estrone was prepared and administered (200× final concentration): a) DMSO was used to dilute the analyte estrone to 20 mM for use. b) 79 μL of the 20 mM analyte prepared in step a) was added to the first well in the first row of the dilution plate, and then 54 μL of DMSO solution was added to the second through ninth wells of the first row. […] The final concentrations (μM) of the analyte drug in wells 2-10 in FIG. 1 are, in order: 100, 31.64557, 10.01442, 3.16912, 1.002886, 0.317369, 0.100433, 0.031783, 0.010058; B. CELLTITER-GLO Luminescent Cell Viability Assay System a) Before testing, the SKOV-3 96-well drug screening plate described in 3 above was stabilized to room temperature for 20-30 minutes. c) 100 μl of CellTiter-Glo reagent (prepared as described in 1 above) was added to all drug screening plates and mixed evenly. d) It was thoroughly oscillated in a 96-well microplate oscillator for 2 minutes to allow the cells to undergo full lysis. e) It was stored away from light at room temperature for 15 minutes before carrying out luminescent signal detection to ensure signal stability. f) An EnSpire multi-function plate reader was used at 570 nm to read the luminescent signals. g) Data was processed and analyzed.

Experiment [2] has as its system HCC1395 breast cancer cells. Kind of experiment: CellTiter-Glo luminescent cell viability assay, HCC1395 breast cancer cells. Conditions: Homo sapiens, 72 hours. The protocol: as §1, with “experiments.” for “experiments. SKOV-3 cells were handled as described above, and a SKOV-3 96-well cell culture plate was obtained. The complete medium for SKOV-3 cells was McCOY'S 5A (a live product), Cat #16600082, with a cells/well density of 12000.”, “System” for “System a) Before testing, the SKOV-3 96-well drug screening plate described in 3 above was stabilized to room temperature for 20-30 minutes.”, “analyzed. […]” for “analyzed.”
A general note: Cellular ATP, detected with luciferase, serves as a proxy for viable cell number.

The test system of experiment [3] is NCI-H460 large-cell lung cancer cells. Nature of the experiment: CellTiter-Glo luminescent cell viability assay, NCI-H460 large-cell lung cancer cells. The conditions noted are these: Homo sapiens, 72 hours.
In experiment [4] the test system is NCI-H1437 human lung cancer cells. Nature of the experiment: CellTiter-Glo luminescent cell viability assay, NCI-H1437 human lung cancer cells. Conditions: 72 hours.

Consider `C[C@]12CC[C@@H]3c4ccc(O)cc4CC[C@H]3[C@@H]1CCC2=O` [Estrone], for which the IC50 is 21.5 µM in experiment [1] (Homo sapiens, SK-OV-3, SKOV-3 cells, 72 hours, CellTiter-Glo); 68 µM in experiment [2]; at least 100 µM in experiment [3]; at least 100 µM in experiment [4]. The concentration giving a half-maximal response (EC50) in experiment [1] (Homo sapiens, SK-OV-3, SKOV-3 cells, 72 hours, CellTiter-Glo, FIG. 2) was 16.4 µM; in experiment [2] (FIG. 3) it was 74000 µM. Further, the “effect on the proliferation of ovarian cancer cells” value in experiment [1] (compared with the lung cancer cell lines of Table 1) is listed as “specific inhibitory effect”.

A word on the IC50: it is the concentration that inhibits the measured activity by half. The EC50 is the concentration needed to bring the measured effect to its halfway point. A higher EC50 goes with a need for much substance.
